This is an account of results in patent publication US20240158446A1, “CYCLIC COMPOUND HAVING SELECTIVE INHIBITORY ACTION ON KRAS OVER HRAS AND NRAS” (CHUGAI SEIYAKU KABUSHIKI KAISHA, priority 2021, published 2024).

Experiment [1] has as its system human lung cancer strain NCI-H441. The experiment can be described thus: cells. Conditions: NCI-H441, 96 h, read-out: NCI-H441 IC50 (nM), NCI-H441 cell proliferation, 4 days, CellTiter-Glo. On the technique in general: In ATP-based viability assays light output follows the ATP content of the culture.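 Further: cell proliferation inhibition after four days measured by CellTiter-Glo.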
The target of experiment [2] is GDP-bound HRAS wild-type protein (Homo sapiens, UniProt P01112). The experiment can be described thus: Binding to HRAS by surface plasmon resonance (SPR), Single Cycle Kinetics. Conditions: ratio of KD for GDP-bound HRAS wild-type protein to KD for KRAS, SPR.
Chain of GDP-bound HRAS wild-type protein (P01112 whole entry): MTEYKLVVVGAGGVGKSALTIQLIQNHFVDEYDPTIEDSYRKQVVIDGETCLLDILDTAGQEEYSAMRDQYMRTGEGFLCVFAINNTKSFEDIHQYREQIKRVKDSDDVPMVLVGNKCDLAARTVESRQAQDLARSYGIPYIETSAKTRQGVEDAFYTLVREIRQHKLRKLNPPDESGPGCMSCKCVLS
Experiment [3] has as its target GDP-bound KRAS wild-type protein (Homo sapiens, UniProt P01116). The experiment can be described thus: Binding to KRAS by surface plasmon resonance (SPR), Single Cycle Kinetics. Conditions: SPR, Single Cycle Kinetics, GDP-bound KRAS wild-type protein; read-out: KRAS KD. In general terms: Surface plasmon resonance follows binding to a sensor surface in real time, without labels.

Experiment [4] concerns the target GDP-bound NRAS wild-type protein (Homo sapiens, UniProt P01111). Briefly: Binding to NRAS by surface plasmon resonance (SPR), Single Cycle Kinetics. Conditions: ratio of KD for GDP-bound NRAS wild-type protein to KD for KRAS, SPR.

Where a SMILES comes first, the peptide text is derived from it. Bridges are numbered along the chain shown (N, C = ends). [ ]: non-standard residue; d: D form. hPhe(3-Cl-4-CF3) = N[C@@H](CCc1ccc(C(F)(F)F)c(Cl)c1)C(=O)O; NPrPhe(4-CF3) = CCCN[C@@H](Cc1ccc(C(F)(F)F)cc1)C(=O)O; NMeNva(3-Et) = CCC(CC)[C@H](NC)C(=O)O; NMeD = CN[C@@H](CC(=O)O)C(=O)O; NMeL = CN[C@@H](CC(C)C)C(=O)O; Ac4c = NC1(C(=O)O)CCC1; Sar = CNCC(=O)O

Chain of GDP-bound KRAS wild-type protein (P01116 whole entry): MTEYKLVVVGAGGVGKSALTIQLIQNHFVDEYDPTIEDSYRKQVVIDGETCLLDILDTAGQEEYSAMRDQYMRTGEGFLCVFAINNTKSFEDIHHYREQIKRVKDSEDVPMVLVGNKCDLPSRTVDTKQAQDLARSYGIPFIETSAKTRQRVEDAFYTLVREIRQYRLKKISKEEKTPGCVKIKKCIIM
Chain of GDP-bound NRAS wild-type protein (P01111 whole entry): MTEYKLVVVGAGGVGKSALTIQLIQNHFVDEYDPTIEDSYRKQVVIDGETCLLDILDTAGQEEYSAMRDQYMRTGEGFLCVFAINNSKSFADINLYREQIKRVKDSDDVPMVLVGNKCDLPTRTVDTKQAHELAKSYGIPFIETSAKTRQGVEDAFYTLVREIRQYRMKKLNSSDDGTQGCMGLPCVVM

On to `CCCN(C)C(=O)[C@@H]1CC(=O)N(C)[C@@H](COC)C(=O)N[C@@H]([C@@H](C)CC)C(=O)N(C)CC(=O)N(C)[C@H]2C/C=C\CCN(C2=O)[C@@H](Cc2ccc(C(F)(F)F)cc2)C(=O)N(C)CC(=O)N[C@@H](CCc2ccc(C(F)(F)F)c(OC)c2)C(=O)N2C[C@H](OCC)C[C@H]2C(=O)NC2(CC(C)(C)C2)C(=O)N(C)[C@@H](C2CCCC2)C(=O)N1C` [PP1656], for which the IC50 in experiment [1] worked out at 1.5 nM. Further, in experiment [2], the “HRAS/KRAS (KD ratio)” value was “A (a compound having 10 or more and less than 20 is denoted as A)”. For the same molecule, the Kd (commonly the equilibrium constant for the complex coming apart) in experiment [3] turned out to be 0.065 nM. In addition, in experiment [4], the “NRAS/KRAS (KD ratio)” value is “AA (a compound having 20 or more is denoted as AA)”.

As for `CCO[C@@H]1C[C@H]2C(=O)NC3(CCC3)C(=O)N(C)[C@@H](C3CCCC3)C(=O)N3CCC[C@@H]3CC(=O)N(C)[C@@H](CC3CC3)C(=O)N[C@@H]([C@@H](C)CC)C(=O)N(C)CC(=O)N(C)[C@H]3C/C=C\CCN(C3=O)[C@@H](Cc3ccc(C(F)(F)F)cc3)C(=O)N(C)CC(=O)N[C@@H](CCc3cc(F)c(C(F)(F)F)c(F)c3)C(=O)N2C1` [PP1613], the IC50 in experiment [1] worked out at 14.7 nM. In addition, in experiment [2], the “HRAS/KRAS (KD ratio)” value is “B (a compound having 3 or more and less than 10 is denoted as B)”. The Kd in experiment [3] was 0.15 nM. Also, the “NRAS/KRAS (KD ratio)” value in experiment [4] was “B (a compound having 3 or more and less than 10 is denoted as B)”.

As for `CC[C@H](C)[C@@H]1NC(=O)[C@H](CC(F)F)N(C)C(=O)C[C@@H](C(=O)N(C)CC)N(C)C(=O)[C@H](C2CCCC2)N(C)C(=O)C2(CC(C)(C)C2)NC(=O)[C@@H]2C[C@@H](C)CN2C(=O)[C@H](CCc2ccc(C(F)(F)F)c(Cl)c2)NC(=O)CN(C)C(=O)[C@H](Cc2ccc(C)cc2)N2CC/C=C\C[C@@H](C2=O)N(C)C(=O)CN(C)C1=O` [PP1837], the IC50 in experiment [1] came out at 15.6 nM. Also, the “HRAS/KRAS (KD ratio)” value in experiment [2] was “A (a compound having 10 or more and less than 20 is denoted as A)”. Besides, the Kd in experiment [3] turned out to be 0.2 nM. Moreover, the “NRAS/KRAS (KD ratio)” value in experiment [4] was “A (a compound having 10 or more and less than 20 is denoted as A)”.

Regarding `CCCN(C)C(=O)[C@@H]1CC(=O)N(C)[C@@H](COC)C(=O)N[C@@H]([C@@H](C)CC)C(=O)N(C)CC(=O)N(C)[C@H]2C/C=C\CCN(C2=O)[C@@H](Cc2ccc(C(F)(F)F)cc2)C(=O)N(C)CC(=O)N[C@@H](CCc2cc(F)c(C(F)(F)F)c(F)c2)C(=O)N2C[C@H](F)C[C@H]2C(=O)NC2(CC(C)(C)C2)C(=O)N(C)[C@@H](C2CCCC2)C(=O)N1C` [PP1696], the IC50 in experiment [1] was determined as 2.9 nM. Besides, in experiment [2], the “HRAS/KRAS (KD ratio)” value was “A (a compound having 10 or more and less than 20 is denoted as A)”. Besides, the Kd in experiment [3] came to 0.041 nM. Also, the “NRAS/KRAS (KD ratio)” value in experiment [4] was “AA (a compound having 20 or more is denoted as AA)”.

For the molecule `CCCOC[C@H]1C(=O)N[C@@H]([C@@H](C)CC)C(=O)N(C)CC(=O)N(C)[C@H]2C/C=C\CCN(C2=O)[C@@H](Cc2ccc(C(F)(F)F)cc2)C(=O)N(C)CC(=O)N[C@@H](CCc2ccc(C(F)(F)F)c(OC)c2)C(=O)N2C[C@H](OCC)C[C@H]2C(=O)NC2(CC(C)(C)C2)C(=O)N(C)[C@@H](C2CCCC2)C(=O)N(C)[C@H](C(=O)N(C)CC)CC(=O)N1C` [PP1973], the IC50 in experiment [1] came to 8.7 nM. Moreover, the “HRAS/KRAS (KD ratio)” value in experiment [2] was “B (a compound having 3 or more and less than 10 is denoted as B)”. In addition, the Kd in experiment [3] stood at 0.099 nM. Also, the “NRAS/KRAS (KD ratio)” value in experiment [4] was “A (a compound having 10 or more and less than 20 is denoted as A)”.

`CCCN1C(=O)CN(C)C(=O)CN(C)C(=O)[C@H]([C@@H](C)CC)NC(=O)[C@H](CC(C)C)N(C)C(=O)C[C@@H](C(=O)N(C)C)N(C)C(=O)[C@H](C(CC)CC)N(C)C(=O)C2(CCC2)NC(=O)[C@@H]2CCCN2C(=O)[C@H](CCc2ccc(C(F)(F)F)c(Cl)c2)NC(=O)CN(C)C(=O)[C@@H]1Cc1ccc(C(F)(F)F)cc1` [PP1960] ([NMeL]I[Sar][Sar][NPrPhe(4-CF3)][Sar][hPhe(3-Cl-4-CF3)]P[Ac4c][NMeNva(3-Et)][NMeD]-NMe2; lactam N-11): in experiment [1], the IC50 is 6 nM. In experiment [2], the “HRAS/KRAS (KD ratio)” value was “C (A compound having a KD ratio of 0.1 or more and less than 3 is denoted as C)”. Besides, in experiment [3], the Kd was 0.17 nM. In addition, the “NRAS/KRAS (KD ratio)” value in experiment [4] was “B (a compound having 3 or more and less than 10 is denoted as B)”.
